Literature values in US9149436B2, “Pharmaceutical product comprising a sequestered agent” (Purdue Pharma L.P., priority 2003, dated 2015).

Details: after oral doses

Compound | duration of action [h]
C[C@H]1[C@H]2Cc3ccc(O)cc3[C@]1(C)CCN2CC1CC1 [cyclazocine] | ~24
O=C1CC[C@@]2(O)[C@H]3Cc4ccc(O)c5c4[C@@]2(CCN3CC2CC2)[C@H]1O5 [naltrexone] | ~24
